The test system of experiment [1] is HL-60. Description: Cytotoxicity against human HL60 cells assessed as cell viability at 10 uM measured after 48 hrs by CCK8 assay relative to control. It is filed as functional. Conditions: HL-60, 48 h, read-out: Activity. A general note: Tetrazolium assays rely on reduction of a dye to a coloured formazan, in cell work by metabolically active cells.
In experiment [2] the test system is HL-60. Description: Cytotoxicity against human HL60 cells assessed as reduction in cell viability measured after 48 hrs by CCK8 assay. Conditions: HL-60, 48 h. It is filed as functional, cell-based.
The subject of experiment [3] is HL-60. As to the kind of experiment: Induction of apoptosis in human HL60 cells assessed as chromatin fragmentation at 1 uM measured after 24 hrs by Hoechst 33342 staining based fluorescence microscopic method. It is filed as functional, cell-based.
For experiment [4], the system named is HL-60. As to the kind of experiment: Induction of apoptosis in human HL60 cells assessed as chromatin crenation at 1 uM measured after 24 hrs by Hoechst 33342 staining based fluorescence microscopic method. It is filed as functional, cell-based.
Experiment [5] concerns HL-60. As to the kind of experiment: Induction of apoptosis in human HL60 cells assessed as chromatin condensation at 1 uM measured after 24 hrs by Hoechst 33342 staining based fluorescence microscopic method. It is filed as functional, cell-based.
Experiment [6] has as its system HL-60. As to the kind of experiment: Induction of reactive oxygen species generation in human HL60 cells assessed as increase in extracellular ROS level at 1 uM measured after 2 hrs by NBT dye-based assay. It is filed as functional, cell-based.
Experiment [7] deals with HL-60. Description: Induction of reactive oxygen species generation in human HL60 cells assessed as increase in intracellular ROS level at 1 uM measured after 2 hrs by NBT dye-based assay relative to control. It is filed as functional.

From ChEMBL document CHEMBL4387767, “Synthesis of carbazoloquinone derivatives and their antileukemic activity via modulating cellular reactive oxygen species” (Bioorg Med Chem Lett, 2019) come the findings set out here.

pIC50: −log10 of the molar value. Calls of active or inactive are those of the source. No cut-off for these calls is given here.

For orientation: pIC50 means the IC50 on a negative log10 scale, so that one unit is a factor of ten. In the case of `COc1ccc2c3c([nH]c2c1)C(=O)C=C(C)C3=O`, the viability at 10 µM in experiment [1] is less than 20%. For the same compound, the pIC50 in experiment [2] (read-out: IC50) was 5.92.

In the case of `CC1=CC(=O)c2c([nH]c3ccccc23)C1=O`, the viability at 10 µM in experiment [1] is less than 20%. Further, the pIC50 in experiment [2] (read-out: IC50) was 6.54.

As to `CC1=CC(=O)c2[nH]c3ccc(Cl)cc3c2C1=O`, in experiment [1], the viability at 10 µM is less than 20%. For the same compound, in experiment [2] (read-out: IC50), the pIC50 was 6.62.

Take `COc1ccc2[nH]c3c(c2c1)C(=O)C(C)=CC3=O`: the viability at 10 µM in experiment [1] is less than 20%. In addition, in experiment [2] (read-out: IC50), the pIC50 is 5.51.

With `CC1=CC(=O)c2[nH]c3ccc(C(F)(F)F)cc3c2C1=O`, the viability at 10 µM in experiment [1] is less than 20%. Further, the pIC50 in experiment [2] (read-out: IC50) is 6.23.

Regarding `CC1=CC(=O)c2[nH]c3ccccc3c2C1=O` [MURRAYAQUINONE A], the result in experiment [3], in experiment [4], in experiment [5] and in experiment [6] was Active. Also, in experiment [1], the viability at 10 µM was less than 20%. Further, the pIC50 in experiment [2] (read-out: IC50) is 6.14. In experiment [7], the “fold change (FC)” value is recorded as 2.3 - 2.4.

Consider `COc1ccc2[nH]c3c(c2c1)C(=O)C=C(C)C3=O`, for which the viability at 10 µM in experiment [1] is less than 20%. Also, the pIC50 in experiment [2] (read-out: IC50) was 5.30.

Regarding `O=C1c2ccccc2C(=O)c2c1[se]c1ccccc21`, the pIC50 in experiment [2] (read-out: IC50) is less than 4.30.

As for `O=c1[nH]cc(F)c(=O)[nH]1` [FLUOROURACIL], in experiment [2], the pIC50 was 4.37.

Regarding `O=C1c2ccccc2C(=O)c2c1oc1ccccc21`, the result in experiment [3], in experiment [4], in experiment [5] and in experiment [6] was Active. In experiment [2] (read-out: IC50), the pIC50 is 6.39. For the same compound, the “fold change (FC)” value in experiment [7] is on record as 2.3 - 2.4.

Take `O=C1c2ccccc2C(=O)c2c1[nH]c1ccccc21` [BENZOCARBAZOLEDIONE]: the pIC50 in experiment [2] (read-out: IC50) is less than 4.30. Further, the outcome in experiment [7] was Active.

For the compound `COc1cc2[nH]c3c(c2cc1OC)C(=O)C(C)=CC3=O`, the viability at 10 µM in experiment [1] was less than 20%. Moreover, in experiment [2] (read-out: IC50), the pIC50 was 6.26.

With `O=C1c2ccccc2C(=O)c2c1sc1ccccc21`, in experiment [2] (read-out: IC50), the pIC50 is less than 4.30.
